In ChEMBL document CHEMBL1201862, “PubChem BioAssay data set” (2004):
Activity calls are given as the source filed them.

What was measured:
Paired box protein Pax-8 = Paired box protein Pax-8 (Homo sapiens, UniProt Q06710); test: inhibitors of PAX8-driven TPO luciferase reporter, dose response, RMG-I cells, cherry-pick (AID 687027); format: functional, cell-based;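 also: luciferase reporter driven by Pax8 target thyroperoxidase promoter measured by SteadyGlo luminescence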
[1] = A2780 ovarian cancer cell cytotoxicity, dose response, cytotoxicity control, plate reader, dry powder samples (AID 743046); format: functional, cell-based
[2] = cytotoxicity in OVCAR8 ovarian cancer cells, dose response, PAX8 project, cell-based, plate reader, dry powder samples (AID 743197); format: functional; conditions: OVCAR-8
[3] = IOSE-T80 ovarian epithelial cell cytotoxicity, dose response, cytotoxicity control for PAX8 inhibitor project, plate reader, dry powder samples (AID 743045); format: functional, cell-based
[4] = NIH:OVCAR-3 ovarian cancer cell cytotoxicity, dose response, PAX8 inhibitor project, plate reader, dry powder samples (AID 743044); format: functional, cell-based
[5] = IGROV1 ovarian cancer cell cytotoxicity, dose response, PAX8 inhibitor project, plate reader, dry powder samples (AID 743043); format: functional, cell-based; conditions: IGROV-1
[6] = HepG2 hepatoma cell cytotoxicity, dose response, cytotoxicity control, CellTiter-Glo luminescence, dry powder, set 3 (AID 720594); format: functional, cell-based
[7] = HEK293T cell cytotoxicity, dose response, cytotoxicity control, CellTiter-Glo luminescence, dry powder, set 2 (AID 720595); format: functional, cell-based; conditions: HEK293
[8] = AlphaScreen signal interference by compounds, dose response, artefact control for ARNT/TACC3 disruptor project, biochemical, dual-tagged ARNT, dry powder (AID 720564)
[9] = MITF Orthogonal Assay: SK-MEL-5 CTG Assay Measured in Cell-Based System Using Plate Reader - 2084-02_Inhibitor_Dose_DryPowder_Activity_Set7.; format: functional
[10] = MITF: Counter assay: A375 proliferation Measured in Cell-Based System Using Plate Reader - 2084-03_Inhibitor_Dose_DryPowder_Activity_Set8.; format: functional; conditions: A-375
[11] = TRPM1 promoter luciferase reporter signal decrease, dose response, MITF inhibitor project, cell-based, SK-MEL-5, dry powder, set 8 (AID 624430); format: functional
[12] = Late stage assay provider results from the probe development effort to identify inhibitors of the Plasmodium falciparum M18 Aspartyl Aminopeptidase (M18AAP): radiolabel-based cell-based dose response assay to identify compounds that inhibit P. falciparum growth in RBCs, Set 2..; format: functional
[13] = HeLa cell cytotoxicity, dose response, cytotoxicity control, CellTiter-Glo luminescence, dry powder, set 2 (AID 720593); format: functional, cell-based
[14] = A549 cell cytotoxicity, dose response, cytotoxicity control, 24 h, CellTiter-Glo luminescence, cherry-picks (AID 1053115); format: functional, cell-based; conditions: A549, 24 h
[15] = P. falciparum Dd2 growth inhibitors, dose response, SYBR Green, cherry-picked samples (AID 1159567); format: functional, cell-based
[16] = Artemis endonuclease inhibitor potency, dose response, biochemical, fluorescence intensity (AID 720701); format: functional;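 also: Artemis endonuclease enzyme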
[17] = target: T1, Low molecular weight phosphotyrosine protein phosphatase (Homo sapiens, UniProt P24666); test: LMPTP phosphatase inhibitors, dose response, biochemical, OMFP substrate, fluorescence intensity, set 2 (AID 743307); format: functional
T1 sequence (P24666 whole entry): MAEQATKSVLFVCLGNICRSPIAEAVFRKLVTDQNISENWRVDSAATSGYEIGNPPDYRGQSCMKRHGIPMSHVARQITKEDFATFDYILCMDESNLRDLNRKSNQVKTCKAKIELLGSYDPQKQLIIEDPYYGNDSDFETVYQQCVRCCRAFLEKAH

[18] = target: T1, Low molecular weight phosphotyrosine protein phosphatase; test: LMPTP phosphatase inhibitors, colorimetric pNPP readout, dose response, orthogonal assay, biochemical, absorbance, pNPP substrate, LMPTP-A isoform, set 2 (AID 743308); format: functional
[19] = A549 cell cytotoxicity, dose response, cytotoxicity control, plate reader, dry powder, set 6 (AID 743312); format: functional, cell-based
cells = conditions: HEK293
[20] = target: G-protein coupled receptor 183 (Homo sapiens, UniProt P32249); test: SAR confirmation of small molecule antagonists of the EBI2 receptor via a luminescent beta-arrestin assa.; format: functional
G-protein coupled receptor 183, sequence (P32249 whole entry): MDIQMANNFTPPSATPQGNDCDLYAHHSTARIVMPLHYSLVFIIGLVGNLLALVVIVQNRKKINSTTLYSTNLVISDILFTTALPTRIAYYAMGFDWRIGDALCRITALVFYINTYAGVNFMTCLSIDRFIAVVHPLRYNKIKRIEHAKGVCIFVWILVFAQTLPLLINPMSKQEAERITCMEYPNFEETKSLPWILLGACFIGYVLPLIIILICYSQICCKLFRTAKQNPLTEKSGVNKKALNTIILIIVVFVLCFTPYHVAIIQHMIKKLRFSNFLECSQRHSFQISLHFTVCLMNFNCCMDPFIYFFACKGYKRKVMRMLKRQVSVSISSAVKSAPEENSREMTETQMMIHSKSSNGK

[21] = P. falciparum Dd2 growth inhibitors, dose response, SYBR Green, dry powder samples, set 4 (AID 1159572); format: functional, cell-based
[22] = HeLa 2N DNA content increase, dose response, cell-based, IC50 (AID 1117349); format: functional
[23] = HeLa 4N DNA content increase, dose response, cell-based, IC50 (AID 1117351); format: functional

Paired box protein Pax-8, sequence (Q06710 whole entry): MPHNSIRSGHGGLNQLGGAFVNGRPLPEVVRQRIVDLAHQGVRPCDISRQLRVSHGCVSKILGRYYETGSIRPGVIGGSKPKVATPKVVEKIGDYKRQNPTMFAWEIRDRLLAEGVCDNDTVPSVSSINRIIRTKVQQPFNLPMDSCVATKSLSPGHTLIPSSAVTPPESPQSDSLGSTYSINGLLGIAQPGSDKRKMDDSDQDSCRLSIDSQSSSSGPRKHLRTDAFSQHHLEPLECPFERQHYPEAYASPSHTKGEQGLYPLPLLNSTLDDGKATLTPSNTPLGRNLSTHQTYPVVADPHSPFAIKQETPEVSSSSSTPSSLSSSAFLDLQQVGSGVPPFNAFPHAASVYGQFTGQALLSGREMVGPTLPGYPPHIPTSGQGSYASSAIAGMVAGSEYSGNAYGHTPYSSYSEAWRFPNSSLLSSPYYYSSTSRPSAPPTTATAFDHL

COc1ccc(-c2ccc3c(c2)[C@@H]2[C@@H](CCN2C(=O)NC2CCCCC2)[C@@H](CO)N3C)cc1
AC50 (Paired box protein Pax-8): 14.5 µM (active) | AC50 [1]: 0.292 µM (active) | AC50 [2]: 37.8 µM (active)

Cc1ccc(S(=O)(=O)Nc2ccc3c(c2)C(=O)N([C@H](C)CO)C[C@@H](C)[C@@H](CN(C)Cc2ccc(C(F)(F)F)cc2)OCCCC[C@@H](C)O3)cc1
AC50 (Paired box protein Pax-8): 5.57 µM (active) | AC50 [3]: 53.7 µM (active) | AC50 [4]: 36 µM (active) | AC50 [5]: 54.4 µM (active) | AC50 [2]: 39.6 µM (active)

CC1CCN(S(=O)(=O)c2ccc(C(=O)Nc3nnc(-c4ccccc4)o3)cc2)CC1
AC50 [6]: > 52 µM (inactive) | AC50 [7]: 2.57 µM (active) | AC50 [8]: 86.8 µM (active)

CN1CCN(C2=C(Nc3ccc(Br)cc3)C(=O)c3ccccc3C2=O)CC1
AC50 [9]: 7.8 µM (active) | AC50 [10]: 27 µM (active) | AC50 [11]: 5.56 µM (active)

COc1ccc(CNc2c3ccccc3nc3ccccc23)cc1OC
IC50 [12]: 1.05 µM (active)

CSc1ccc(-c2nnc(NC(=O)c3ccc(S(=O)(=O)N4CCC(C)CC4)cc3)o2)cc1
AC50 [6]: > 52 µM (inactive) | AC50 [7]: 9.24 µM (active) | AC50 [13]: > 52 µM (inactive)

OC[C@H]1Nc2ccc(-c3ccccc3)cc2[C@H]2[C@@H]1CCN2Cc1ccc(F)cc1
AC50 [14]: 46.4 µM (active) | AC50 [15]: 1.25 µM (active)

CCCCn1/c(=N/C(=O)c2ccc3c(c2)OCO3)c(C#N)cc2c(=O)n3cccc(C)c3nc21
IC50 [16]: > 20 µM (inactive)

c1ccc(-c2nc(NC3CCCCC3)c3ccccc3n2)cc1
IC50 [17]: 19.1 µM (active) | IC50 [18]: > 80 µM (inactive)

Cc1ccc(OCCn2cnc3ccccc32)c(C(C)C)c1
AC50 [19]: 24.5 µM (active) | AC50 (cells): 39.8 µM (active)

O=C(/C=C/c1ccc(Br)cc1)N1CCN(C(=O)c2ccc(C(F)(F)F)cc2)CC1
IC50 [20]: 0.00188 µM (active)

COc1ccc2c3c([nH]c2c1)[C@H](CO)NCC31CCN(C(=O)Nc2ccccc2F)CC1
AC50 [21]: 1.52 µM (active)

CCCCCCCCCCCCCCCC[N+](C)(C)Cc1ccccc1 [CETALKONIUM CHLORIDE]
IC50 [22]: > 10 µM (inactive) | IC50 [23]: > 10 µM (inactive)
